Measurements published in ChEMBL document CHEMBL4020763, “N-(1H-Pyrazol-3-yl)quinazolin-4-amines as a novel class of casein kinase 1δ/ε inhibitors: Synthesis, biological evaluation and molecular modeling studies” (Bioorg Med Chem Lett, 2017).

Experiments:
[1] = system: MCF7; test: Growth inhibition of human MCF7 cells at 100 uM by MTT assay relative to control; format: functional; conditions: read-out: GI
[2] = system: MDA-MB-468; test: Growth inhibition of human MDA-MB-468 cells at 100 uM by MTT assay relative to control; format: functional; conditions: read-out: GI
[3] = system: ZR-75-1; test: Growth inhibition of human ZR-75-1 cells at 100 uM by MTT assay relative to control; format: functional; conditions: read-out: GI
[4] = molecular target: CDK9/cyclin T1 (Homo sapiens) (UniProt O60563+P50750); test: Inhibition of recombinant human CDK9/cyclin T expressed in insect cells at 10 uM using YSPTSPSYSPTSPSYSPTSPSKKKK as substrate after 30 mins in presence of ATP by scintillation counting method relative to control
[5] = system: ZR-75-30; test: Cytotoxicity against human ZR-7530 cells by MTT assay; format: functional, cell-based
[6] = Inhibition of porcine brain CK1-delta/epsilon using CSK peptide as substrate after 30 mins in presence of ATP by scintillation counting method; parameters: species or system Sus scrofa
[7] = Growth inhibition of HEK293 cells at 100 uM by MTT assay relative to control; format: cell-based; conditions: human, read-out: GI
[8] = system: MDA-MB-231; test: Growth inhibition of human MDA-MB-231 cells at 100 uM by MTT assay relative to control; format: functional; conditions: read-out: GI
[9] = system: MIA PaCa-2; test: Cytotoxicity against human MIAPaCa2 cells by MTT assay; format: functional, cell-based
[10] = molecular target: Cyclin-dependent kinase 5/CDK5 activator 1 (Homo sapiens) (UniProt Q00535+Q15078); test: Inhibition of recombinant human CDK5/p25 expressed in Escherichia coli at 10 uM using histone H1 as substrate after 30 mins in presence of ATP by scintillation counting method relative to control
[11] = system: HCT-15; test: Growth inhibition of human HCT15 cells at 100 uM by MTT assay relative to control; format: functional; conditions: read-out: GI
[12] = system: MCF7; test: Cytotoxicity against human MCF7 cells by MTT assay; format: functional, cell-based
[13] = system: ZR-75-1; test: Cytotoxicity against human ZR-75-1 cells by MTT assay; format: functional, cell-based
[14] = molecular target: Glycogen synthase kinase-3 (Sus scrofa, UniProt B2LUN4+I6LNT8); test: Inhibition of porcine brain GSK-3 alpha/beta using YRRAAVPPSPSLSRHSSPHQpSEDEEE as substrate after 30 mins in presence of ATP by scintillation counting method
[15] = system: BT-20; test: Growth inhibition of human BT20 cells at 100 uM by MTT assay relative to control; format: functional; conditions: read-out: GI
[16] = system: HCT-15; test: Cytotoxicity against human HCT15 cells by MTT assay; format: functional, cell-based
[17] = system: MIA PaCa-2; test: Growth inhibition of human MIAPaCa2 cells at 100 uM by MTT assay relative to control; format: functional; conditions: read-out: GI
[18] = system: Asteroidea; test: Inhibition of M-phase starfish oocytes CDK1/cyclin B at 10 uM using histone H1 as substrate after 30 mins in presence of ATP by scintillation counting method relative to control
[19] = molecular target: Glycogen synthase kinase-3 (Sus scrofa) (UniProt B2LUN4+I6LNT8); test: Inhibition of porcine brain GSK-3 alpha/beta at 10 uM using YRRAAVPPSPSLSRHSSPHQpSEDEEE as substrate after 30 mins in presence of ATP by scintillation counting method relative to control
[20] = molecular target: CDK2/Cyclin A2 (Homo sapiens) (UniProt P24941+P20248); test: Inhibition of recombinant human CDK2/cyclin A at 10 uM using histone H1 as substrate after 30 mins in presence of ATP by scintillation counting method relative to control; format: protein-complex assay
[21] = system: MDA-MB-468; test: Cytotoxicity against human MDA-MB-468 cells by MTT assay; format: functional, cell-based
[22] = system: HEK293; test: Cytotoxicity against HEK293 cells by MTT assay; format: cell-based; conditions: Homo sapiens
[23] = species on record: Sus scrofa; test: Inhibition of porcine brain CK1-delta/epsilon at 10 uM using CSK peptide as substrate after 30 mins in presence of ATP by scintillation counting method relative to control
[24] = system: PANC-1; test: Growth inhibition of human PANC1 cells at 100 uM by MTT assay relative to control; format: functional; conditions: read-out: GI
[25] = molecular target: Dual specificity protein kinase CLK1 (Mus musculus) (UniProt P22518); test: Inhibition of recombinant mouse GST-fused CLK1 expressed in Escherichia coli at 10 uM using RS peptide as substrate after 30 mins in presence of ATP by scintillation counting method relative to control
[26] = system: DU-145; test: Growth inhibition of human DU145 cells at 100 uM by MTT assay relative to control; format: functional; conditions: read-out: GI
[27] = system: ZR-75-30; test: Growth inhibition of human ZR-7530 cells at 100 uM by MTT assay relative to control; format: functional; conditions: read-out: GI
[28] = molecular target: Dual specificity tyrosine-phosphorylation-regulated kinase 1A (Homo sapiens) (UniProt Q13627); test: Inhibition of recombinant full length human GST-fused DYRK1A expressed in Escherichia coli at 10 uM using RS peptide as substrate after 30 mins in presence of ATP by scintillation counting method relative to control
[29] = Inhibition of M-phase starfish oocytes CDK1/cyclin B using histone H1 as substrate after 30 mins in presence of ATP by scintillation counting method; parameters: species or system Asteroidea
[30] = system: A549; test: Cytotoxicity against human A549 cells by MTT assay; format: functional, cell-based
[31] = system: MDA-MB-231; test: Cytotoxicity against human MDA-MB-231 cells by MTT assay; format: functional, cell-based
[32] = system: PANC-1; test: Cytotoxicity against human PANC1 cells by MTT assay; format: functional, cell-based
[33] = system: A549; test: Growth inhibition of human A549 cells at 100 uM by MTT assay relative to control; format: functional; conditions: read-out: GI
[34] = molecular target: Dual specificity protein kinase CLK1 (Mus musculus, UniProt P22518); test: Inhibition of recombinant mouse GST-fused CLK1 expressed in Escherichia coli using RS peptide as substrate after 30 mins in presence of ATP by scintillation counting method
[35] = molecular target: CDK2/Cyclin A2 (Homo sapiens, UniProt P24941); test: Inhibition of recombinant human CDK2/cyclin A using histone H1 as substrate after 30 mins in presence of ATP by scintillation counting method; format: protein-complex assay
[36] = system: BT-20; test: Cytotoxicity against human BT20 cells by MTT assay; format: functional, cell-based

Chain of Dual specificity protein kinase CLK1 (Mus musculus) (P22518 whole entry, looked up, the tested form may be a part): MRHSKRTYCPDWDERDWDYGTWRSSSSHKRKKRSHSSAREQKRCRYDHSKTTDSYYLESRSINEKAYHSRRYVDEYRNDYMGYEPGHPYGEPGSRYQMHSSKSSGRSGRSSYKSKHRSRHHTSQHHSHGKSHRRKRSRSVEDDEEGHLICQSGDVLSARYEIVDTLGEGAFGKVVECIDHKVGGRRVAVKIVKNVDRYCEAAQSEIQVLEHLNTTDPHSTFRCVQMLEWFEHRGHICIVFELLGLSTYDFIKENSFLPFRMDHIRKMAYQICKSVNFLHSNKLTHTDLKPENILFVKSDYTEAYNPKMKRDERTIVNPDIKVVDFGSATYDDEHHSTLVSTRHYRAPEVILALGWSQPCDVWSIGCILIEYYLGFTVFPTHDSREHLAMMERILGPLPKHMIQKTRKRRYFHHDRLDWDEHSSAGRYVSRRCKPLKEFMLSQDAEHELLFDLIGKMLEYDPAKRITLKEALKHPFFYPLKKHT
Chain of Dual specificity protein kinase CLK1 (P22518 whole entry, the tested form may be a part): as the sequence (P22518 whole entry, looked up, the tested form may be a part) above
Chain of Cyclin-dependent kinase 5/CDK5 activator 1 (Homo sapiens) (Q00535 whole entry): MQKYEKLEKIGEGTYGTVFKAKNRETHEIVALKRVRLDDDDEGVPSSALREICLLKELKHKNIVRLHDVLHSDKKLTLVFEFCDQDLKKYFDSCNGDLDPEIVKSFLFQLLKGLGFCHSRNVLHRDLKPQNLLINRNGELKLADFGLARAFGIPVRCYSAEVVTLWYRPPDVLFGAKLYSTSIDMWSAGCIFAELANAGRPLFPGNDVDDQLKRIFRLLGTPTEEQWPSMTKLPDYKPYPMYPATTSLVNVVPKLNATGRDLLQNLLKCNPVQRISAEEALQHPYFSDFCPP
Chain of Cyclin-dependent kinase 5/CDK5 activator 1 (Homo sapiens) (Q15078 99-307 partner limits assumed): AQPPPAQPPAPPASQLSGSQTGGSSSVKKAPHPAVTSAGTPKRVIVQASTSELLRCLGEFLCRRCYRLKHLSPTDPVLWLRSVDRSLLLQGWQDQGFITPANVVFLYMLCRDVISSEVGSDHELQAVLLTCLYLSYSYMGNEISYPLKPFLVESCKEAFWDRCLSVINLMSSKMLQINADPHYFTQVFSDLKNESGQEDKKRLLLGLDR

COc1cc2ncnc(Nc3cc(O)[nH]n3)c2cc1OC
inhibition of growth at 100 µM [1]: > 50% | inhibition of growth at 100 µM [2]: > 50% | inhibition of growth at 100 µM [3]: > 50% | inhibition [4]: > 50% | IC50 [5]: > 100 µM | IC50 [6]: < 10 µM | inhibition at 100 µM [7]: > 50% | inhibition of growth at 100 µM [8]: > 50% | IC50 [9]: > 100 µM | inhibition [10]: > 50% | inhibition of growth at 100 µM [11]: > 50% | IC50 [12]: > 100 µM | IC50 [13]: > 100 µM | IC50 [14]: > 10 µM | inhibition of growth at 100 µM [15]: > 50% | IC50 [16]: > 100 µM | inhibition of growth at 100 µM [17]: > 50% | inhibition [18]: > 50% | inhibition [19]: > 50% | inhibition [20]: > 50% | IC50 [21]: 86.7 µM | IC50 [22]: 69.5 µM | inhibition [23]: > 50% | inhibition of growth at 100 µM [24]: > 50% | inhibition [25]: > 50% | inhibition of growth at 100 µM [26]: > 50% | inhibition of growth at 100 µM [27]: > 50% | inhibition [28]: > 50% | IC50 [29]: > 10 µM | IC50 [30]: 74.9 µM | IC50 [31]: > 100 µM | IC50 [32]: > 100 µM | inhibition of growth at 100 µM [33]: > 50% | IC50 [34]: > 10 µM | IC50 [35]: > 10 µM | IC50 [36]: > 100 µM

COc1cc2ncnc(Nc3cc(-c4ccc(Cl)cc4)[nH]n3)c2cc1OC
inhibition of growth at 100 µM [1]: > 50% | inhibition of growth at 100 µM [2]: > 50% | inhibition of growth at 100 µM [3]: > 50% | inhibition [4]: > 50% | IC50 [5]: 91.5 µM | IC50 [6]: < 10 µM | inhibition at 100 µM [7]: > 50% | inhibition of growth at 100 µM [8]: > 50% | IC50 [9]: < 100 µM | inhibition [10]: > 50% | inhibition of growth at 100 µM [11]: > 50% | IC50 [12]: > 100 µM | IC50 [13]: > 100 µM | IC50 [14]: > 10 µM | inhibition of growth at 100 µM [15]: > 50% | IC50 [16]: 98.2 µM | inhibition of growth at 100 µM [17]: > 50% | inhibition [18]: > 50% | inhibition [19]: > 50% | inhibition [20]: > 50% | IC50 [21]: 79.5 µM | IC50 [22]: 81.2 µM | inhibition [23]: > 50% | inhibition of growth at 100 µM [24]: > 50% | inhibition [25]: > 50% | inhibition of growth at 100 µM [26]: > 50% | inhibition of growth at 100 µM [27]: > 50% | inhibition [28]: > 50% | IC50 [29]: > 10 µM | IC50 [30]: > 100 µM | IC50 [31]: < 100 µM | IC50 [32]: > 100 µM | inhibition of growth at 100 µM [33]: > 50% | IC50 [34]: > 10 µM | IC50 [35]: > 10 µM | IC50 [36]: > 100 µM

COc1ccc(-c2cc(Nc3ncnc4cc(OC)c(OC)cc34)n[nH]2)cc1
inhibition of growth at 100 µM [1]: > 50% | inhibition of growth at 100 µM [2]: > 50% | inhibition of growth at 100 µM [3]: > 50% | inhibition [4]: > 50% | IC50 [5]: < 100 µM | IC50 [6]: < 10 µM | inhibition at 100 µM [7]: > 50% | inhibition of growth at 100 µM [8]: > 50% | IC50 [9]: < 100 µM | inhibition [10]: > 50% | inhibition of growth at 100 µM [11]: > 50% | IC50 [12]: > 100 µM | IC50 [13]: > 100 µM | IC50 [14]: > 10 µM | inhibition of growth at 100 µM [15]: > 50% | IC50 [16]: < 100 µM | inhibition of growth at 100 µM [17]: > 50% | inhibition [18]: > 50% | inhibition [19]: > 50% | inhibition [20]: > 50% | IC50 [21]: 45.3 µM | IC50 [22]: > 100 µM | inhibition [23]: > 50% | inhibition of growth at 100 µM [24]: > 50% | inhibition [25]: > 50% | inhibition of growth at 100 µM [26]: > 50% | inhibition of growth at 100 µM [27]: > 50% | inhibition [28]: > 50% | IC50 [29]: > 10 µM | IC50 [30]: > 100 µM | IC50 [31]: < 100 µM | IC50 [32]: > 100 µM | inhibition of growth at 100 µM [33]: > 50% | IC50 [34]: > 10 µM | IC50 [35]: > 10 µM | IC50 [36]: > 100 µM
